Assay results as given in patent US8883827B2, “Azole derivatives as WTN pathway inhibitors” (Oslo University Hospital HF, priority 2009, dated 2014).

Key:
[1] = target: T1, PTPN22(h) (Homo sapiens, UniProt Q9Y2R2); assay: Phosphatase screen; assay type: biochemical; conditions: 0.1% DMSO control = 100%
T1 construct: purchased Millipore (KinaseProfiler service)

[2] = target: T2, HePTP(h) (Homo sapiens, UniProt P35236); assay: Phosphatase screen; assay type: biochemical; conditions: 0.1% DMSO control = 100%
T2 construct: purchased Millipore (KinaseProfiler service)
T2 sequence (P35236 whole entry): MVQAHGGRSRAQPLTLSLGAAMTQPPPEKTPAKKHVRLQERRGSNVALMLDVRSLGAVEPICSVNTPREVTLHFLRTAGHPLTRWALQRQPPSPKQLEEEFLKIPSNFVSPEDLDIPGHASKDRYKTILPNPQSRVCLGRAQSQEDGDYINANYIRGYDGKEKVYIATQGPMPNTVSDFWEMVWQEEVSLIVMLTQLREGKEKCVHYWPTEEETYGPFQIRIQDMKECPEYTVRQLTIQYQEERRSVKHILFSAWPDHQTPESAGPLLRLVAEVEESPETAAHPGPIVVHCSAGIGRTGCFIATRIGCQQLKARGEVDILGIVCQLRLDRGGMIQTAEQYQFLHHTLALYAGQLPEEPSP

[3] = tested on: β-catenin; assay: Western blot and immunocytochemistry of β-catenin in SW480 cells; assay type: cell-based
Experimental: The effect of compound No. 1 on the presence of β-catenin in the nucleus or in the cytoplasm of colorectal cancer SW480 cells was investigated. SW480 cells contain activating mutations in the APC gene, leading to elevated levels of nuclear β-catenin and aberrant canonical Wnt signaling. A Western blot analysis was carried out using cell lysates from compound-treated SW480 cells and an antibody against the active form of β-catenin (non-phosphorylated N-terminal—ABC). In parallel, antibodies were used against total β-catenin (β-catenin), or β-catenin phosphorylated at the N-terminal (-β-catenin) which detects a degradable form of β-catenin.
SW480 cells were seeded and treated with compound No. 1 as described in Example 25. Cell lysates were immunoblotted using monoclonal active-β-catenin (ABC—Millipore), monoclonal β-catenin (β-catenin—BD Transduction Laboratories™), phospho-β-catenin (pβ-catenin—Cell Signaling Technology) and actin (Sigma). Primary antibodies were visualized with secondary HRP conjugated antibodies (Santa Cruz Biotechnology) and enhanced chemiluminescent substrate (Pierce® ECL Western Blotting Substrate, Thermo Scientific).
For immunocytochemical experiments, SW480 cells were seeded and treated as described in Example 24. After 72 hours, cells were fixed in 4% PFA in PBS for 10 minutes. Immunostaining was performed as described in standard protocols. Primary antibody (monoclonal β-catenin, BD Transduction Laboratories™) and secondary antibody (Alexa Fluor® 594, Invitrogen) were diluted 1:1000. The samples were imaged by using a Zeiss Axiovert 200M Fluorescence/Live cell Imaging Microscope with X40 magnification and the same exposure times. Cells were stained with DAPI (4′,6-diamidino-2-phenylindole) according to standard protocols.

[4] = target: T3, SHP-1(h) (Homo sapiens, UniProt P29350); assay: Phosphatase screen; assay type: biochemical; conditions: 0.1% DMSO control = 100%
T3 construct: purchased Millipore (KinaseProfiler service)
T3 sequence (P29350 whole entry): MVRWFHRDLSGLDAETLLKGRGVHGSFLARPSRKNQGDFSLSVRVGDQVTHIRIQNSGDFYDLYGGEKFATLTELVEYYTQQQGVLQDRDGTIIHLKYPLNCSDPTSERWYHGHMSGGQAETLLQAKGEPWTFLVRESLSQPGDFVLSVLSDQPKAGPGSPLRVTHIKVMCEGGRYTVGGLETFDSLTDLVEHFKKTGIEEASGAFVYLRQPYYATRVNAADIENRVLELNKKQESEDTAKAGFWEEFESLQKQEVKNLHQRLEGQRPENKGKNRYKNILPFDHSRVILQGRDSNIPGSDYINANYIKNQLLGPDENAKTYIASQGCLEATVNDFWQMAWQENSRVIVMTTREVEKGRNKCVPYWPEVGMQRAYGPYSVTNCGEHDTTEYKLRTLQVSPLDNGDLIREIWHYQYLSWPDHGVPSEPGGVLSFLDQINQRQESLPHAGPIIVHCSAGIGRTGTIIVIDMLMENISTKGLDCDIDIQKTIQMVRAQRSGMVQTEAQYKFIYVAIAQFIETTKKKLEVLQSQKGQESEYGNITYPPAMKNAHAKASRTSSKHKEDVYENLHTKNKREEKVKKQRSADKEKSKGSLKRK

[5] = tested on: canonical Wnt signaling; assay: IC50 in STF/REN HEK293 cells, 50% Wnt3a-CM; assay type: cell-based; conditions: Homo sapiens; STF/REN HEK293, 50% Wnt3a-CM, 24 h
Procedure, shortened: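 HEK293 cells carrying STF/REN reporters seeded at 80,000/well on poly-L-lysine; after 24 h, exposed 24 h to compound in 50% Wnt3a-conditioned medium. Firefly and Renilla luciferase measured by Dual-Glo; IC50 fitted to a Langmuir binding isotherm.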

T1 sequence (Q9Y2R2 whole entry): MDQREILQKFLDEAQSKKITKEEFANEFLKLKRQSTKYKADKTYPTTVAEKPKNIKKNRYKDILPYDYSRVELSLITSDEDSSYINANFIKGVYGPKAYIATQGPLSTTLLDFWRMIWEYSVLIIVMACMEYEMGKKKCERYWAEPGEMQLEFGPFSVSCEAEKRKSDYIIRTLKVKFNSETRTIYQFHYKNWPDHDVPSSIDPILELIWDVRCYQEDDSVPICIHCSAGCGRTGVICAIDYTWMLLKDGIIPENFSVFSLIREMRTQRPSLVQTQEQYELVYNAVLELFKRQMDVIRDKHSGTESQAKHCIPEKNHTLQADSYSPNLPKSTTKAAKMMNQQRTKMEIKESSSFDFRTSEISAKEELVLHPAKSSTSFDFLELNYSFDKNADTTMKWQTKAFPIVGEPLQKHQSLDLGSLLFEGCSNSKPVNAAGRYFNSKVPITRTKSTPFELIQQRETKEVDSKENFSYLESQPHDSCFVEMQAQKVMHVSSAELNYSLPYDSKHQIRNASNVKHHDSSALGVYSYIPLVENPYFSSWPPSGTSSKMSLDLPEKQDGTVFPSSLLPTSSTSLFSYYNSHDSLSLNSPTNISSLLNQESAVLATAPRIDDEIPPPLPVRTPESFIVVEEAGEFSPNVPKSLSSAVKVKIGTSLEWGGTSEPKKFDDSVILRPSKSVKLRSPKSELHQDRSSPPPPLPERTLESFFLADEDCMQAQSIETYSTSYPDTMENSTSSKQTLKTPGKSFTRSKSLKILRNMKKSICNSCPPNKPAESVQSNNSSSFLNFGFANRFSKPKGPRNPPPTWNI

Structure (SMILES): COc1ccc(-n2c(SCc3nc(-c4ccc(C)cc4)no3)nnc2-c2ccncc2)cc1 [Compound 1]
- activity at 10 µM [1]: 99%
- activity at 10 µM [2]: 106%
- active β-catenin (non-phosphorylated, ABC) in Western blot ([3]; SW480, 1 μM, 72 hours): barely detectable
- overall levels of total β-catenin (Western blot) ([3]; SW480, 72-hour exposure): reduced
- nuclear total β-catenin (immunofluorescence) ([3]; SW480, 72-hour incubation): Reduction
- level of degradable pβ-catenin (Western blot) ([3]; SW480, 24 hours after adding compound): temporarily increased
- active β-catenin (ABC) level (Western blot) ([3]; SW480, 72 h, all concentrations): even stronger reduction
- activity at 10 µM [4]: 102%
- IC50 [5]: 1010 nM
